Measurements from patent publication US8574590B2 (Integral Molecular, Inc., priority 2003, dated 2013).
Where two headings read alike, the source gives them in different places.

Columns and labels:
Kv1.3 = Kv1.3 (Homo sapiens, UniProt P22001); conditions: cited from earlier work
Shaker = Shaker (Drosophila melanogaster, UniProt P08510); conditions: cited from earlier work
K-channels = conditions: cited from earlier work
Ca-activated K-channels = conditions: cited from earlier work
[1] = read-out: Kd for Ca^++; cited from earlier work
[2] = depending on the ionic composition of the membrane; cited from earlier work
[3] = system: Gag/luciferase-lipoparticles; test: Melittin poration of Gag/luciferase-lipoparticles (luciferase luminescence); assay type: biochemical; conditions: melittin 0.3 to 105 uM, 30 minutes
Experimental: FIG. 24. […] Lipoparticles were constructed to contain a luciferase enzyme inside the lipoparticle. […] To insure the integrity of the luciferase, after each addition of melittin, the same sample was lysed with Triton X-100 (circles) and again measured.
Lipoparticles containing a Gag-luciferase fusion protein were prepared as described herein. Melittin, ranging from 0.3 to 105 uM in final concentration, was added to solutions of Gag/luciferase-lipoparticles (MOPS pH 6.5 buffer), mixed, and incubated for 30 minutes. A 5 μl aliquot of the Lipoparticle solution was then transferred to a 96-well plate containing 50 μl of Luciferase assay reagent (Promega Steady Glo Luciferase Assay System) which contains the necessary reagents for enzymatic activity, including luciferin, ATP, and Mg^2+. Luminescence was measured for 1 second integrations in a Wallac Victor2V. […] Triton X-100 was used to lyse luciferase-lipoparticles as a positive control.

Chain of Kv1.3 (P22001 whole entry): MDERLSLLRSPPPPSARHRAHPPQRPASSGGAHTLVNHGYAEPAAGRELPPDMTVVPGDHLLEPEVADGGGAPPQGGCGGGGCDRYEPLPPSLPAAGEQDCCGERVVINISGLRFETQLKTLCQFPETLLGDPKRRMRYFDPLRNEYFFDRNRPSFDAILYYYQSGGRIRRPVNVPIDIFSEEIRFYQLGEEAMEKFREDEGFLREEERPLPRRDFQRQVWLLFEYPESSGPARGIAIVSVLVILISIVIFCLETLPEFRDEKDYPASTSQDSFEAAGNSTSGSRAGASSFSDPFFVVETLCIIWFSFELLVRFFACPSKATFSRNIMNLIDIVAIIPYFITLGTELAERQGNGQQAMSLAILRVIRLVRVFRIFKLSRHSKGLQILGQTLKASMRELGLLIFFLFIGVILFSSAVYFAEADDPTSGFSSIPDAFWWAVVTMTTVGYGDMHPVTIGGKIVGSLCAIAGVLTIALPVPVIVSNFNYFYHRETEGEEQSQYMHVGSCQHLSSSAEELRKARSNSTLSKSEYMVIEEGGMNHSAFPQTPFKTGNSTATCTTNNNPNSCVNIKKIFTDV
Chain of Shaker (P08510 whole entry): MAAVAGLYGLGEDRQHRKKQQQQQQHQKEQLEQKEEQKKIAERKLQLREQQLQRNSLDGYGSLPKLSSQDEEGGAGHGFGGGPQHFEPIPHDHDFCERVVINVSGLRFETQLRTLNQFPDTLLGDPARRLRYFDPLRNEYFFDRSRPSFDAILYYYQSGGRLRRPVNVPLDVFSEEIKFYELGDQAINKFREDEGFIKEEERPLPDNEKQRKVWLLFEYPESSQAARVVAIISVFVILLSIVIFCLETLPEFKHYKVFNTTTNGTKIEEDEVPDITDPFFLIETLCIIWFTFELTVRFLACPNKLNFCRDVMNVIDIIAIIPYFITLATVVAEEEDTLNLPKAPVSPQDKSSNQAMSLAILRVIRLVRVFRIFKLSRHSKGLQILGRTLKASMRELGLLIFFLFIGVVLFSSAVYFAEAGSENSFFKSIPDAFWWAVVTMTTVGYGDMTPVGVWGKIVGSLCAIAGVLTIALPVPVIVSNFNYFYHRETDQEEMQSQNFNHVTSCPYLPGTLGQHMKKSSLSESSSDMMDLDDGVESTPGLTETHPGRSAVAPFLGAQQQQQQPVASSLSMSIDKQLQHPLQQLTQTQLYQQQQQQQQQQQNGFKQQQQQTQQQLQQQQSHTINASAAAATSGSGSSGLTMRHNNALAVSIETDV

Alpha-Dendrotoxin
Blocking of Kv1.3 (Kv1.3): Blocks Kv1.3 and Shaker | Blocking of Shaker (Shaker): Blocks Kv1.3 and Shaker | binding under high ionic strength conditions (K-channels; high ionic strength): Binds very weakly under high ionic strength | binding under low ionic strength conditions (K-channels; low ionic strength): Binds strongly under low ionic strength conditions

Iberiotoxin: toxin, inhibitor of K-channels (QFTDVDCSVSKECWSVCKDLFGVDRGKCMGKKCRCYQ; UniProt P24663 1-37, looked up)
Blocking of Kv1.3 (Kv1.3): not Kv1.3 | Blocking of Shaker (Shaker): not | Blocking of Ca-activated K-channels (Ca-activated K-channels): Blocks

Margatoxin
Blocking of Kv1.3 (Kv1.3): Blocks | Blocking of Shaker (Shaker): not Shaker

Cc1ccc(N(CC(=O)O)CC(=O)O)c(OCCOc2cc3cc(-c4ncc(C(=O)O)o4)oc3cc2N(CC(=O)O)CC(=O)O)c1 [Fura-2]
Kd [1]: 140 nM

CCCCCCCCCCCCCCCCCc1cc(=O)oc2cc(O)ccc12 [4-heptadecyl-7-hydroxycoumarin]
pKa range [2]: 6.35-11.15

Agitoxin-2: toxin, inhibitor of K-channels
Blocking of Kv1.3 (Kv1.3): Blocks Kv1.3 and Shaker | Blocking of Shaker (Shaker): Blocks Kv1.3 and Shaker

Charybdotoxin
Blocking of Kv1.3 (Kv1.3): Blocks Kv1.3 and Shaker | Blocking of Kv1.3 (Kv1.3; listed as CHTX): highly specific, potent, and impermeant blocker | Blocking of Shaker (Shaker): Blocks Kv1.3 and Shaker | Blocking of Shaker (Shaker; listed as CHTX): highly specific, potent, and impermeant blocker | effect of Ca on binding (K-channels): Ca inhibits binding | binding at low ionic strength, high pH (8.5) (K-channels; low ionic strength, high pH (8.5)): Low ionic strength, high pH (8.5) enhances binding

CC[C@H](C)[C@H](NC(=O)CN)C(=O)NCC(=O)N[C@@H](C)C(=O)N[C@H](C(=O)N[C@@H](CC(C)C)C(=O)N[C@@H](CCCCN)C(=O)N[C@H](C(=O)N[C@@H](CC(C)C)C(=O)N[C@H](C(=O)N[C@H](C(=O)NCC(=O)N[C@@H](CC(C)C)C(=O)N1CCC[C@H]1C(=O)N[C@@H](C)C(=O)N[C@@H](CC(C)C)C(=O)N[C@H](C(=O)N[C@@H](CO)C(=O)N[C@@H](Cc1c[nH]c2ccccc12)C(=O)N[C@H](C(=O)N[C@@H](CCCCN)C(=O)N[C@@H](CCCNC(=N)N)C(=O)N[C@@H](CCCCN)C(=O)N[C@@H](CCCNC(=N)N)C(=O)N[C@@H](CCC(N)=O)C(=O)N[C@@H](CCC(N)=O)C(N)=O)[C@@H](C)CC)[C@@H](C)CC)[C@@H](C)O)[C@@H](C)O)C(C)C)C(C)C [Melittin]
permeabilization of lipoparticles (luciferase signal) [3]: increase of the luminescent signal | permeabilization of lipoparticles (luciferase signal) ([3]; listed as melittin): the lipoparticles were permeabilized
